Results taken from ChEMBL document CHEMBL3885861, “Open TG-GATES”.

Species: Rattus norvegicus
Test: Open TG-GATES - Regimen: Daily Repeat
Assay type: toxicity, organism-based, Sprague-Dawley
Parameters: regimen Daily Repeat, gender Male, age 6 weeks
Conditions: in vivo, po, 200 mg/kg, route gavage, dose level High; for APTT / Bas / Eos / Fbg / Hb / Ht / Lym / MCH / MCHC / MCV / Mono / Neu / PT / Plat / RBC / Ret / WBC: tissue Blood; for KIDNEY_L / KIDNEY_R / KIDNEY_TOTAL: tissue Kidney; for LIVER: tissue Liver; for A/G / ALP / ALT / AST / BUN / CRE / Ca / Cl / DBIL / GLC / IP / K / LDH / Na / PL / RALB / TBIL / TC / TG / TP / gamma-GTP: tissue Plasma

NNC(=O)c1ccncc1 [ISONIAZID]
TERMINAL_BW (72 h, time 3 day): 211.3 g
APTT (72 h, time 3 day): 15.3 s
Bas (72 h, time 3 day): 0%
Eos (72 h, time 3 day): 0.8%
Fbg (72 h, time 3 day): 228.6 mg/dL
Hb (72 h, time 3 day): 13.5 g/dL
Ht (72 h, time 3 day): 40.4%
Lym (72 h, time 3 day): 78.4%
MCH (72 h, time 3 day): 21.5 pg
MCHC (72 h, time 3 day): 33.5%
MCV (72 h, time 3 day): 64.1 fL
Mono (72 h, time 3 day): 4.6%
Neu (72 h, time 3 day): 16%
PT (72 h, time 3 day): 12 s
Plat (72 h, time 3 day): 140.8 x10_4/uL
RBC (72 h, time 3 day): 629.8 x10_4/ul
Ret (72 h, time 3 day): 6.5%
WBC (72 h, time 3 day): 96.9 x10_2/uL
KIDNEY_L (72 h, time 3 day): 1 g
KIDNEY_R (72 h, time 3 day): 1.1 g
KIDNEY_TOTAL (72 h, time 3 day): 2.1 g
LIVER (72 h, time 3 day): 10.5 g
A/G (72 h, time 3 day): 1.9
ALP (72 h, time 3 day): 722.8 IU/L
ALT (72 h, time 3 day): 10.6 IU/L
AST (72 h, time 3 day): 44.4 IU/L
BUN (72 h, time 3 day): 19 mg/dL
CRE (72 h, time 3 day): 0.5 mg/dL
Ca (72 h, time 3 day): 10.6 mg/dL
Cl (72 h, time 3 day): 104.8 meq/L
DBIL (72 h, time 3 day): 0.006 mg/dL
GLC (72 h, time 3 day): 209.6 mg/dL
IP (72 h, time 3 day): 7.6 mg/dL
K (72 h, time 3 day): 5.1 meq/L
LDH (72 h, time 3 day): 95.8 IU/L
Na (72 h, time 3 day): 140.2 meq/L
PL (72 h, time 3 day): 140.6 mg/dL
RALB (72 h, time 3 day): 3.8 g/dL
TBIL (72 h, time 3 day): 0.3 mg/dL
TC (72 h, time 3 day): 78.6 mg/dL
TG (72 h, time 3 day): 63 mg/dL
TP (72 h, time 3 day): 5.8 g/dL
gamma-GTP (72 h, time 3 day): 1.4 IU/L
TERMINAL_BW ([…], time 7 day): 228.8 g
TERMINAL_BW ([…], time 14 day): 255.7 g
TERMINAL_BW ([…], time 28 day): 314.6 g
APTT ([…], time 7 day): 16.3 s
Bas ([…], time 7 day): 0%
Eos ([…], time 7 day): 0.6%
Fbg ([…], time 7 day): 236.4 mg/dL
Hb ([…], time 7 day): 13.6 g/dL
Ht ([…], time 7 day): 40.5%
Lym ([…], time 7 day): 81.4%
MCH ([…], time 7 day): 20 pg
MCHC ([…], time 7 day): 33.5%
MCV ([…], time 7 day): 59.7 fL
Mono ([…], time 7 day): 4.6%
Neu ([…], time 7 day): 13.2%
PT ([…], time 7 day): 12.1 s
Plat ([…], time 7 day): 138 x10_4/uL
RBC ([…], time 7 day): 678.2 x10_4/ul
Ret ([…], time 7 day): 4.7%
WBC ([…], time 7 day): 126.4 x10_2/uL
APTT ([…], time 14 day): 16.2 s
Bas ([…], time 14 day): 0%
Eos ([…], time 14 day): 1.2%
Fbg ([…], time 14 day): 212.8 mg/dL
Hb ([…], time 14 day): 13.3 g/dL
Ht ([…], time 14 day): 39.7%
Lym ([…], time 14 day): 73.4%
MCH ([…], time 14 day): 18.9 pg
MCHC ([…], time 14 day): 33.6%
MCV ([…], time 14 day): 56.2 fL
Mono ([…], time 14 day): 5.8%
Neu ([…], time 14 day): 19.8%
PT ([…], time 14 day): 12.3 s
Plat ([…], time 14 day): 134 x10_4/uL
RBC ([…], time 14 day): 707.4 x10_4/ul
Ret ([…], time 14 day): 5.4%
WBC ([…], time 14 day): 130.8 x10_2/uL
APTT ([…], time 28 day): 15.9 s
Bas ([…], time 28 day): 0%
Eos ([…], time 28 day): 0.8%
Fbg ([…], time 28 day): 226.2 mg/dL
Hb ([…], time 28 day): 13 g/dL
Ht ([…], time 28 day): 39%
Lym ([…], time 28 day): 84.2%
MCH ([…], time 28 day): 16.6 pg
MCHC ([…], time 28 day): 33.2%
MCV ([…], time 28 day): 50 fL
Mono ([…], time 28 day): 5.5%
Neu ([…], time 28 day): 9.2%
PT ([…], time 28 day): 12.2 s
Plat ([…], time 28 day): 130.1 x10_4/uL
RBC ([…], time 28 day): 781.8 x10_4/ul
Ret ([…], time 28 day): 3.8%
WBC ([…], time 28 day): 181.2 x10_2/uL
KIDNEY_L ([…], time 7 day): 1.2 g
KIDNEY_R ([…], time 7 day): 1.2 g
KIDNEY_TOTAL ([…], time 7 day): 2.3 g
KIDNEY_L ([…], time 14 day): 1.2 g
KIDNEY_R ([…], time 14 day): 1.2 g
KIDNEY_TOTAL ([…], time 14 day): 2.3 g
KIDNEY_L ([…], time 28 day): 1.4 g
KIDNEY_R ([…], time 28 day): 1.4 g
KIDNEY_TOTAL ([…], time 28 day): 2.8 g
LIVER ([…], time 7 day): 11.1 g
LIVER ([…], time 14 day): 12.1 g
LIVER ([…], time 28 day): 12.6 g
A/G ([…], time 7 day): 1.6
ALP ([…], time 7 day): 757.4 IU/L
ALT ([…], time 7 day): 8.6 IU/L
AST ([…], time 7 day): 46.8 IU/L
BUN ([…], time 7 day): 16.2 mg/dL
CRE ([…], time 7 day): 0.5 mg/dL
Ca ([…], time 7 day): 10.4 mg/dL
Cl ([…], time 7 day): 105 meq/L
DBIL ([…], time 7 day): 0.028 mg/dL
GLC ([…], time 7 day): 212.2 mg/dL
IP ([…], time 7 day): 8 mg/dL
K ([…], time 7 day): 5.1 meq/L
LDH ([…], time 7 day): 77.6 IU/L
Na ([…], time 7 day): 140.6 meq/L
PL ([…], time 7 day): 127.8 mg/dL
RALB ([…], time 7 day): 3.8 g/dL
TBIL ([…], time 7 day): 0.3 mg/dL
TC ([…], time 7 day): 64.4 mg/dL
TG ([…], time 7 day): 62.2 mg/dL
TP ([…], time 7 day): 6.1 g/dL
gamma-GTP ([…], time 7 day): 1.2 IU/L
A/G ([…], time 14 day): 1.7
ALP ([…], time 14 day): 587.6 IU/L
ALT ([…], time 14 day): 8.8 IU/L
AST ([…], time 14 day): 48.4 IU/L
BUN ([…], time 14 day): 20.4 mg/dL
CRE ([…], time 14 day): 0.6 mg/dL
Ca ([…], time 14 day): 10.3 mg/dL
Cl ([…], time 14 day): 106.8 meq/L
DBIL ([…], time 14 day): 0.004 mg/dL
GLC ([…], time 14 day): 210.8 mg/dL
IP ([…], time 14 day): 7.8 mg/dL
K ([…], time 14 day): 5.1 meq/L
LDH ([…], time 14 day): 123.4 IU/L
Na ([…], time 14 day): 139.8 meq/L
PL ([…], time 14 day): 123.2 mg/dL
RALB ([…], time 14 day): 3.7 g/dL
TBIL ([…], time 14 day): 0.3 mg/dL
TC ([…], time 14 day): 60.2 mg/dL
TG ([…], time 14 day): 61.8 mg/dL
TP ([…], time 14 day): 5.9 g/dL
gamma-GTP ([…], time 14 day): 0.2 IU/L
A/G ([…], time 28 day): 1.6
ALP ([…], time 28 day): 533 IU/L
ALT ([…], time 28 day): 6.8 IU/L
AST ([…], time 28 day): 49.8 IU/L
BUN ([…], time 28 day): 19.5 mg/dL
CRE ([…], time 28 day): 0.6 mg/dL
Ca ([…], time 28 day): 9.9 mg/dL
Cl ([…], time 28 day): 106 meq/L
DBIL ([…], time 28 day): 0.0525 mg/dL
GLC ([…], time 28 day): 212.5 mg/dL
IP ([…], time 28 day): 6.7 mg/dL
K ([…], time 28 day): 4.9 meq/L
LDH ([…], time 28 day): 81.2 IU/L
Na ([…], time 28 day): 140.8 meq/L
PL ([…], time 28 day): 108.2 mg/dL
RALB ([…], time 28 day): 3.6 g/dL
TBIL ([…], time 28 day): 0.2 mg/dL
TC ([…], time 28 day): 53.8 mg/dL
TG ([…], time 28 day): 41.8 mg/dL
TP ([…], time 28 day): 5.8 g/dL
gamma-GTP ([…], time 28 day): 1.5 IU/L
